# Reference: US20250230147A1, “LACTAMS AS CBL-B INHIBITORS” (Genentech, Inc., priority 2021, published 2025)
# pIC50: −log10 of the molar value. Counter-ions that a name gives are not always drawn.
# Legend:
# [1] = biological target: Cbl-b (Homo sapiens (Human), UniProt Q13191); experiment: Cbl-b LCK Ub TR-FRET assay (Cbl-b Lck HTRF); format: biochemical
# Protocol: Compounds were 3-fold serially diluted in DMSO in a 384-well polypropylene plate (#P-05525-BC; Labcyte) to generate a source plate with 10 concentrations of each compound, top concentration=2 mM. 80 nL of DMSO or compounds were transferred to each well of a black 384-well ProxiPlate (#6008260; PerkinElmer) using a Labcyte Echo. 1×assay buffer (50 mM HEPES pH7.0, 100 mM NaCl, 0.01% BSA, 0.01% Triton-X100, 1 mM DTT), 2×enzyme solution (16 nM Biotin-Cbl-b or 12 nM Biotin-c-Cbl in 1× assay buffer), 2×kinase mixture (120 nM His-LCK, 1 mM ATP, 10 mM MgCl2 in assay buffer) and 2.33×detection mixture (4.66×solution 1: 163 nM Anti-HA-D2 antibody (#610HADAB; PerkinElmer), 27.96 nM Streptavidin-EU (#AD0062; PerkinElmer), 1.398 mM EDTA in 1×assay buffer+4.66×solution 2: 2.796 μM UBE2D2/Methylated-HA-Ubiquitin thioester adduct (BostonBiochem) in 1×assay buffer) were prepared. 4 μL of 2× enzyme solution was added to each well containing compound, briefly centrifuged to mix, and incubated for 60 min at room temperature. 4 μL of 2× kinase mixture was added, briefly centrifuged to mix, and incubated for 90 min. at room temperature. 6 μL of detection mixture was added to all wells and briefly centrifuged before incubating for 20 min at room temperature. Plates were read for TR-FRET using an Envision at excitation 340 nm, emission at 615 and 665 nm, 4 flashes per well. IC50 was generated using no LCK as the low control and DMSO as the high control.
# Cbl-b Lck HTRF data in Table 7 is measured according to Example 76 herein; C-cbl Lck HTRF data is measured according to Example 76 herein.
# [2] = biological target: c-Cbl (Homo sapiens (Human), UniProt P22681); experiment: C-Cbl LCK Ub TR-FRET assay (c-cbl Lck HTRF); format: biochemical; conditions: for (fold-selectivity): C-cbl Lck HTRF IC50 relative to Cbl-b Lck HTRF IC50
# Chain of c-Cbl (P22681 47-435): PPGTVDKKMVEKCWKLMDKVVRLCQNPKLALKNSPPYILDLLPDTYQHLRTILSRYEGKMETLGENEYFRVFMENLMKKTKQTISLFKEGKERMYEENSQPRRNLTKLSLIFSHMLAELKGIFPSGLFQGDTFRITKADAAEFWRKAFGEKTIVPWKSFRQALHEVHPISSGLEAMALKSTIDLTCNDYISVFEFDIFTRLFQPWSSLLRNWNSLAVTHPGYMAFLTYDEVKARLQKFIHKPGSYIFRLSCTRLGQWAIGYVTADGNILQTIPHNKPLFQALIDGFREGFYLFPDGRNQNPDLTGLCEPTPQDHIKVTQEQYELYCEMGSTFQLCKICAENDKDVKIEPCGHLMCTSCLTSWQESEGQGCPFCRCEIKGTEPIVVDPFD
# Protocol: 6 μL of detection mixture was added to all wells and briefly centrifuged before incubating for 20 min at room temperature. […] IC50 was generated using no LCK as the low control and DMSO as the high control.
# Chain of Cbl-b (Q13191 40-426): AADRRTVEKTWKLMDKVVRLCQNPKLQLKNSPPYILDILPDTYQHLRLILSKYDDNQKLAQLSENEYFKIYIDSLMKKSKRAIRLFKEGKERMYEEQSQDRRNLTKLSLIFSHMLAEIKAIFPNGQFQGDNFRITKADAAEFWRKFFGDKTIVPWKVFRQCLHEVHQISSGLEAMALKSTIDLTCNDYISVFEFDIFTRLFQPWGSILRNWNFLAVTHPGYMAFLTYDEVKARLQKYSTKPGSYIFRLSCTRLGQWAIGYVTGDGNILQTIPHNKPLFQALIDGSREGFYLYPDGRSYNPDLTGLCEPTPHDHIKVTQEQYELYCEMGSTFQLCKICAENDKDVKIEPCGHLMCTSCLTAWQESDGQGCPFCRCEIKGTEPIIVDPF
SMILES,pIC50 [1],pIC50 [2],(fold-selectivity) [2]
"Cn1cnnc1[C@H](F)C1(c2cccc(N3Cc4c(cc([C@H](N)CC5CC5)cc4C(F)(F)F)C3=O)c2)COC1 [Compound 390, 6-((R)-1-amino-2-cyclopropylethyl)-2-(3-(3-((R)-fluoro(4-methyl-4H-1,2,4-triazol-3-yl)methyl)oxetan-3-yl)phenyl)-4-(trifluoromethyl)isoindolin-1-one]",7.02,7.96,(1.1x)
"Cn1cnnc1[C@@H](F)C1(c2cccc(N3Cc4c(cc(CN5CC(C)(CO)C5)cc4C(F)(F)F)C3=O)c2)COC1 [Compound 75, (S)-2-(3-(3-(fluoro(4-methyl-4H-1,2,4-triazol-3-yl)methyl)oxetan-3-yl)phenyl)-6((3-(hydroxymethyl)-3-methylazetidin-1-yl)methyl)-4-(trifluoromethyl)isoindolin-1-one]",6.60,6.24,2.3x
"CNCc1cc2c(c(C(F)(F)F)c1)CN(c1cc(C3(Cc4nncn4C)COC3)cc(NC3CCCC3)n1)C2=O [Compound 277, 2-(6-(cyclopentylamino)-4-(3-((4-methyl-4H-1,2,4-triazol-3-yl)methyl)oxetan-3-yl)pyridin-2-yl)-6-((methylamino)methyl)-4-(trifluoromethyl)isoindolin-1-one]",6.64,6.06,(3.8x)
"CCCCc1cc(C2(Cc3nncn3C)CCC2)cc(N2Cc3c(cc(CNC4(C)CCC4)cc3C(F)(F)F)C2=O)n1 [Compound 346, 2-(6-butyl-4-(1-((4-methyl-4H-1,2,4-triazol-3-yl)methyl)cyclobutyl)pyridin-2-yl)-6-(((1-methylcyclobutyl)amino)methyl)-4-(trifluoromethyl)isoindolin-1-one]",7.96,8.00,(0.92x)
"C[C@@H](c1cc2c(c(C(F)(F)F)c1)CN(c1cccc(C3([C@H](F)c4nncn4C)COC3)c1)C2=O)N1CC(C)(F)C1 [Compound 110, 2-(3-(3-((S)-fluoro(4-methyl-4H-1,2,4-triazol-3-yl)methyl)oxetan-3-yl)phenyl)-6-((S)-1-(3-fluoro-3-methylazetidin-1-yl)ethyl)-4-(trifluoromethyl)isoindolin-1-one]",6.49,6.19,2.0x
"Cn1cnnc1[C@@H](F)C1(c2cccc(N3Cc4c(cc(CN5CC(S(C)(=O)=O)C5)cc4C(F)(F)F)C3=O)c2)COC1 [Compound 164, (S)-2-(3-(3-(fluoro(4-methyl-4H-1,2,4-triazol-3-yl)methyl)oxetan-3-yl)phenyl)-6-((3-(methylsulfonyl)azetidin-1-yl)methyl)-4-(trifluoromethyl)isoindolin-1-one]",6.46,6.19,1.8x
"CCC1(NCc2cc3c(c(C(F)(F)F)c2)CN(c2cccc(C4(Cc5nncn5C)CC(F)(F)C4)c2)C3=O)CCC1 [Compound 369, 2-(3-(3,3-difluoro-1-((4-methyl-4H-1,2,4-triazol-3-yl)methyl)cyclobutyl)phenyl)-6-(((1-ethylcyclobutyl)amino)methyl)-4-(trifluoromethyl)isoindolin-1-one formate]",7.77,7.82,
"Cn1cnnc1CC1(c2cccc(N3Cc4c(cc(CNC5(C)CCC5(C)C)cc4C(F)(F)F)C3=O)c2)CC(F)(F)C1 (stereo not shown) [Compound 355, 2-(3-(3,3-difluoro-1-((4-methyl-4H-1,2,4-triazol-3-yl)methyl)cyclobutyl)phenyl)-4-(trifluoromethyl)-6-(((1,2,2-trimethylcyclobutyl)amino)methyl) isoindin-1-one formate]",7.85,8.04,
"Cn1cnnc1CC(F)c1cccc(N2Cc3c(cccc3C(F)(F)F)C2=O)c1 (racemic) [Compound 14, 2-[3-[1-fluoro-2-(4-methyl-4H-1,2,4-triazol-3-yl)ethyl]phenyl]-4-(trifluoromethyl)isoindolin-1-one]",5.00,4.70,2.0x
"Cn1cnnc1CC1(c2cc(OC3CCCC3)nc(N3Cc4c(cc(CNC5(C)CCC5)cc4C(F)(F)F)C3=O)c2)COC1 [Compound 294, 2-(6-(cyclopentyloxy)-4-(3-((4-methyl-4H-1,2,4-triazol-3-yl)methyl)oxetan-3-yl)pyridin-2-yl)-6-(((1-methylcyclobutyl)amino)methyl)-4-(trifluoromethyl)isoindolin-1-one]",8.02,7.80,(1.7x)

# Further lines, results first:
pIC50 [1],pIC50 [2],(fold-selectivity) [2],SMILES
4.89,4.70,(1.6x),"Cc1cn(CC2(c3cccc(N4Cc5c(cc(CN6CCN(C)C[C@@H]6C(C)C)cc5C(F)(F)F)C4=O)c3)COC2)nn1 [Compound 257, (S)-6-((2-isopropyl-4-methylpiperazin-1-yl)methyl)-2-(3-(3-((4-methyl-1H-1,2,3-triazol-1-yl)methyl)oxetan-3-yl)phenyl)-4-(trifluoromethyl)isoindolin-1-one]"
7.74,7.60,1.4x,"Cn1cnnc1CC1(c2cccc(N3Cc4c(cc(CN5CC[C@H](CCl)C5)cc4C(F)(F)F)C3=O)c2)COC1 [Compound 102, (S)-6-((3-(chloromethyl)pyrrolidin-1-yl)methyl)-2-(3-(3-((4-methyl-4H-1,2,4-triazol-3-yl)methyl)oxetan-3-yl)phenyl)-4-(trifluoromethyl)isoindolin-1-one]"
7.85,7.80,(1.1x),"Cn1cnnc1[C@@H](F)C1(c2cccc(N3Cc4c(cc(CNCCCF)cc4C(F)(F)F)C3=O)c2)CC(F)(F)C1 [Compound 448, (S)-2-(3-(3,3-difluoro-1-(fluoro(4-methyl-4H-1,2,4-triazol-3-yl)methyl)cyclobutyl)phenyl)-6-(((3-fluoropropyl)amino)methyl)-4-(trifluoromethyl)isoindolin-1-one]"
6.89,6.62,1.8x,"COC[C@H]1CCCN1Cc1cc2c(c(C(F)(F)F)c1)CN(c1cccc(C3([C@@H](F)c4nncn4C)COC3)c1)C2=O [Compound 155, 2-(3-(3-((R)-fluoro(4-methyl-4H-1,2,4-triazol-3-yl)methyl)oxetan-3-yl)phenyl)-6-(((R)-2-(methoxymethyl)pyrrolidin-1-yl)methyl)-4-(trifluoromethyl)isoindolin-1-one]"
7.00,7.00,(1.0x),"CN1CCN(Cc2cc3c(c(C(F)(F)F)c2)CN(c2cccc(C4(Cc5nncn5C)CC(F)(F)C4)c2)C3=O)C(C(F)(F)F)C1 (stereo not shown) [Compound 374, 2-(3-(3,3-difluoro-1-((4-methyl-4H-1,2,4-triazol-3-yl)methyl)cyclobutyl)phenyl)-6-((4-methyl-2-(trifluoromethyl)piperazin-1-yl)methyl)-4-(trifluoromethyl)isoindolin-1-one]"
6.82,6.72,1.3x,"Cn1cnnc1[C@H](F)C1(c2cccc(N3Cc4c(cc(CN5CCC[C@@H]5CO)cc4C(F)(F)F)C3=O)c2)COC1 [Compound 147, 2-(3-(3-((R)-fluoro(4-methyl-4H-1,2,4-triazol-3-yl)methyl)oxetan-3-yl)phenyl)-6-(((R)-2-(hydroxymethyl)pyrrolidin-1-yl)methyl)-4-(trifluoromethyl)isoindolin-1-one]"
6.31,6.42,(0.77x),"Cn1cnnc1C(F)(F)C1(c2cccc(N3Cc4c(cc(CN5CC(C)(O)C5)cc4C(F)(F)F)C3=O)c2)CC(F)(F)C1 [Compound 383, 2-(3-(1-(difluoro(4-methyl-4H-1,2,4-triazol-3-yl)methyl)-3,3-difluorocyclobutyl)phenyl)-6-((3-hydroxy-3-methylazetidin-1-yl)methyl)-4-(trifluoromethyl)isoindolin-1-one]"
6.66,6.55,1.3x,"Cn1cnnc1[C@@H](F)C1(c2cccc(N3Cc4c(cc(CN5CCC[C@@H](CO)C5)cc4C(F)(F)F)C3=O)c2)COC1 [Compound 152, 2-(3-(3-((S)-fluoro(4-methyl-4R-1,2,4-triazol-3-yl)methyl)oxetan-3-yl)phenyl)-6-(((R)-3-(hydroxymethyl)piperidin-1-yl)methyl)-4-(trifluoromethyl)isoindolin-1-one]"
5.85,5.47,(2.6x),"Cn1cnnc1C(F)(F)C1(c2cccc(N3Cc4c(cccc4C(F)(F)F)C3=O)c2)CC(F)(F)C1 [Compound 253, 2-(3-(1-(difluoro(4-methyl-4H-1,2,4-triazol-3-yl)methyl)-3,3-difluorocyclobutyl)phenyl)-4-(trifluoromethyl)isoindolin-1-one]"
